# According to patent US20250057858A1, “COMPOSITIONS AND METHODS FOR TREATING NEUROLOGICAL DISORDERS WITH COMBINATION PRODUCTS” (Neurotech International Ltd, priority 2021, published 2025):
# What was measured:
# COX-2 [1] = assay: COX-2 protein, NTI164 plus prednisone (Example 8); format: cell-based; details: PDN 5 uM; NTI164 7.5 ug/ml; Interleukin & Interferon activation =1
# Protocol: Cells were fixed for 10 min with 4% paraformaldehyde (PFA) in PBS. After 3×5 minutes washing with PBS, cells were incubated with primary antibodies. (anti-COX2) 1:1000 overnight at 4° C., and after 3×5 minutes washing in PBS, cells were then incubated in appropriate fluorescent secondary antibody 1:250 (Invitrogen) for 2 hours at room temperature. After a final wash, as previous, cells nuclei were stained with DAPI in the mounting media. Photomicrographs were taken of the cells in three fields of view per well from duplicate wells and analysed using Fiji for area coverage of each marker.
# Treatment groups include: • (1) Control: PBS Buffer • (2) Positive control: Inflammatory stimulation by Interferon gamma and Interleukin-1B activation Prednisone (PDN) concentration 5 uM • (3) Combination therapy: Prednisone (PDN) 5 uM+NTI164 concentration 7.5ug/ml
# Result Analysis: Calculated as % reduction in inflammation, PDN versus Combination therapy (prednisone 5 uM+NTI164 concentration 7.5ug/ml). Student's t-test was used for statistical analysis.
# TNFα = TNFα in microglial culture media, NTI164 plus psylocibin (Example 9); format: cell-based; details: PBS Control 1.00, Positive activation I&I 10.67
# Protocol: Microglia media harvested following treatment initiation was centrifuged briefly to remove particulates (300 g for 10 min). The level of TNFα in the microglial culture media was measured using a Bio-Plex 200 with a 96-well magnetic plate assay according to the manufacturer's instructions (Bio-Rad). The samples were run in duplicate that were averaged for analysis. At least three samples per group were run.
# COX-2 [2] = assay: COX-2 immunohistochemistry in human derived microglial cells (Example 4); format: cell-based; details: for COX-2 expression (Avg +/− SEM): 2 μg/ml, N=9
# Protocol: Immunohistochemistry (Protein Level) Assay: Cells were fixed for 10 min with 4% paraformaldehyde (PFA) in PBS. After 3×5 minutes washing with PBS, cells were incubated with primary antibodies (anti-COX2) 1:1000 overnight at 4° C., and after 3×5 minutes washing in PBS, cells were then incubated in appropriate fluorescent secondary antibody 1:250 (Invitrogen) for 2 hours at room temperature. After a final wash, as previous, cells nuclei were stained with DAPI in the mounting media. Photomicrographs were taken of the cells in three fields of view per well from duplicate wells and analysed using Fiji for area coverage of each marker.
# (§1) 500 mg of dried plant material of NTI164 is suspended in 20 ml of absolute ethanol (using 50 ml blue top falcon tubes appropriate for centrifugation) and stirred/shaken vigorously for 60 seconds. The tubes are then placed in a sonication bath for 10 mins at 35-40 C. Upon completion of the sonication samples are then placed in a tray shaker (200 rpm) for 30 minutes at room temperature. Once completed the samples are then centrifuged at 4400 rpm for 5 minutes. The supernatant is collected for testing and development.
# Units used to describe treatments for test products and concentrations for NTI164. • a. 1/1000 dilution of extract—10 µL (stock material is NTI164—10 µL, which equates to 2 μg/ml of CBDA) • b. 1/3000 dilution of extract—3 µL (stock material is NTI164—3 µL, which equates to […] of CBDA) • c. 1/10000 dilution of extract—1 µL (stock material is NTI164—1 µL, which equates to 0.1 μg/ml of CBDA)
# For the CBD sample, a pure standard (in powder form) was used. CBD 98% isolate was purchased as a reference standard from LGC Standards (London UK) (CAS No. 13956-29-1). The CBD standard reference was prepared at concentration of 1 mg/ml (in acetonitrile). CBD dilutions were made in acetonitrile as follows: 2 μg/ml; 6 μg/ml; and 0.1 μg/ml.
# The final concentration of NTI164 (CBDA equivalent) and CBD that was used in these studies was 2 μg/ml.
# IL-12 = assay: Multiplex cytokine assay, IL-12, microglial cells (Example 4); format: cell-based, human; details: 2 μg/ml
# Protocol: (§2) Multiplex Cytokine/Chemokine Assay: Microglia media harvested following treatment initiation was centrifuged briefly to remove particulates (300 g for 10 min). Cytokine and chemokine levels in the microglial media were measured using a Bio-Plex 200 with a 96-well magnetic plate assay according to the manufacturer's instructions (Bio-Rad). Cytokines and chemokines measured included IL-1α, IL-1β, IL-2, IL-6, IL-10, IL-12 (p70), IL-13, G-CSF, GM-CSF, IFNγ, TNFα, CXCL1 (KC), CCL2 (MCP-1), and CCL5 (RANTES). All samples were run in duplicate and data were analyzed with the Bio-Plex Manager software.
# as §1
# (§3) Units used to describe treatments for test products and concentrations for NTI164. • a. 1/1000 dilution of extract—10 µL (stock material is NTI164—10 µL, which equates to 2 μg/ml of CBDA) • b. […]
# [3] = tested on: cells in an excitotoxic cell injury paradigm; assay: Cell death in an excitotoxic cell injury paradigm; format: cell-based
# Protocol: Neuronal viability was quantified using MTT [3-(4,5-dimethylthiazol-2-yl-)-2,5-diphenyl-2H-tetrazolium bromide; Sigma]. NTI164 treated celled were able to increase the number of “healthy” cells under basal conditions following short term glutamate exposure. Cellular excitotoxicity was achieved via glutamate activation (3 mM). NTI164 was able to stimulate cell growth after short term glutamate induced “insult”.
# TNF-alpha = assay: Multiplex cytokine assay, TNF-alpha, microglial cells (Example 4); format: cell-based, human; details: 2 μg/ml
# Protocol: as §2, §1, §3
# [4] = exposure 1 hour after inflammatory insult
# [5] = exposure 1 hour prior to inflammatory insult
# [6] = Interleukin and Interferon activation
smiles,measurement,setting,value
"C[C@]12C=CC(=O)C=C1CC[C@@H]1[C@@H]2C(=O)C[C@@]2(C)[C@H]1CC[C@]2(O)C(=O)CO [PDN, Prednisone]",COX-2 Protein,COX-2 [1],0.888
"CN(C)CCc1c[nH]c2cccc(OP(=O)(O)O)c12 [SubP (Psylocibin), Psylocibin]",TNF-ALPHA ASSESSMENTS RESULTS,TNFα; 1 ug/ml,4.87
same,TNF-ALPHA ASSESSMENTS RESULTS,TNFα; 5 ug/ml,9.17
"C=C(C)[C@@H]1CCC(C)=C[C@H]1c1c(O)cc(CCCCC)cc1O [CBD, cannabidiol]","P, positive control vs treatment (COX-2)",COX-2 [2]; [4],P = 0.0566
same,COX-2 expression (Avg +/− SEM),COX-2 [2]; [4],76.32 +/− 7.95 (SEM)
same,"P, positive control vs treatment (COX-2)",COX-2 [2]; [5],P = 0.3237
same,COX-2 expression (Avg +/− SEM),COX-2 [2]; [5],84.82 +/− 7.65 (SEM)
same,"Statistical Significance Reduction Compared to Control Alone (P), IL-12",IL-12,= 0.008
same,"IL-12, Average",IL-12; [6],84.40
same,cell death / toxicity,[3],toxic
same,"Statistical Significance Reduction Compared to Control Alone (P), TNF-alpha",TNF-alpha,= 0.0005
same,"TNF-alpha, Average",TNF-alpha; [6],71.13
